Results reported in patent US10058487B2, “Polymerizable dental material” (Muhlbauer Technology GmbH, priority 2014, dated 2018).
In brackets after ≈: the same amount, converted by molar mass.

Assay: Determination of the water solubility by UV/visible spectroscopy
Format: physicochemical
Conditions: 23 °C, thermodynamic from solid; saturated solution in deionized water, 23±2° C.; read-out: Solubility
Protocol: The water solubility was determined in deionized water by UV/visible spectroscopy. The spectra were recorded with a UV/visible spectrometer (Evolution 600, Thermo Scientific) between 200-900 nm. The measurement was carried out in quartz cells (path length 10 mm). The pure solvent deionized water was used for the background spectrum. The background spectrum was subtracted from the spectra of the coinitiators.
Dilute solutions of the different coinitiators with known concentrations were prepared in deionized water. The absorption of the different coinitiators was measured in the absorption maximum (between 290-310 nm) and a linear relationship between the known concentrations and the measured absorptions was determined.
Saturated aqueous solutions of the coinitiators were diluted up to the point that the measured absorption falls in the linear region found above. The concentrations of the coinitiators in the saturated aqueous solutions are determined via the Lambert-Beer law.
`CCCCOCCOC(=O)c1ccc(N(C)C)cc1` [2-(n-Butoxy)ethyl 4-dimethylaminobenzoate] gave a solubility of 35 µg/mL (≈ 132 µM).
Work on `COCCNC(=O)c1ccc(N(C)C)cc1` [4-Dimethylamino-N-(2-methoxyethyl)benzamide] yielded a solubility of 2670 µg/mL (≈ 12000 µM).
Molecule `CCCNC(=O)c1ccc(N(C)C)cc1` [4-Dimethylamino-N-propylbenzamide] has a solubility of 680 µg/mL (≈ 3300 µM).
Molecule `CN(C)c1ccc(C(N)=O)cc1` [4-Dimethylaminobenzamide] has a solubility of 427 µg/mL (≈ 2600 µM).
Molecule `CN(C)c1ccc(C#N)cc1` [4-Dimethylaminobenzonitrile] has a solubility of 278 µg/mL (≈ 1900 µM).
`CCCCC(CC)COC(=O)c1ccc(N(C)C)cc1` (centres unmarked) [EHA, 2-Ethylhexyl 4-dimethylaminobenzoate] showed a solubility of 26 µg/mL (≈ 93.7 µM).
Molecule `CCOC(=O)c1ccc(N(C)C)cc1` [Ethyl 4-dimethylaminobenzoate] has a solubility of 36 µg/mL (≈ 186 µM).

Same assay, conditions: saturated solution in deionized water, 23±2° C.
For “Polyethylene glycol monomethyl ether 4-dimethylaminobenzoate [PEGA]”, the solubility was greater than 766000 µg/mL.
